Test results reported in ChEMBL document CHEMBL5257106, “Design, synthesis, and biological evaluation of novel HDAC inhibitors with a 3-(benzazol-2-yl)quinoxaline framework” (Bioorg Med Chem Lett, 2023).
The source made the active and inactive calls. The rule behind the calls is not given here.

Key:
HCT-116 [1] = test: Induction of apoptosis in human HCT-116 cells assessed as activation of caspase pathway incubated for 24 hrs by Western blot analysis; assay type: functional, cell-based; conditions: dose 0.5-1 µM
PANC-1 = test: Antiproliferative activity against human PANC-1 cells assessed as inhibition of cell growth by MTT assay; assay type: functional, cell-based
HCT-116 [2] = test: Induction of apoptosis in human HCT-116 cells assessed as early apoptotic cells at 1 uM incubated for 24 hrs by Annexin V-FITC/PI staining based flow cytometry analysis (reference value: 6.50%); assay type: functional
RS4-11 = test: Antiproliferative activity against human RS4-11 cells assessed as inhibition of cell growth by MTT assay; assay type: functional, cell-based
HCT-116 [3] = test: Induction of apoptosis in human HCT-116 cells assessed as upregulation of cleaved PARP expression at 0.5 to 1 uM incubated for 24 hrs by Western blot analysis; assay type: functional, cell-based; conditions: dose 0.5-1 µM
HCT-116 [4] = test: Induction of apoptosis in human HCT-116 cells assessed as late apoptotic cells at 1 uM incubated for 24 hrs by Annexin V-FITC/PI staining based flow cytometry analysis (reference value: 0.323%); assay type: functional
Histone deacetylase 1 = Histone deacetylase 1 (Homo sapiens, UniProt Q13547); test: Inhibition of HDAC1 (unknown origin)
Chain of Histone deacetylase 1 (Q13547 whole entry): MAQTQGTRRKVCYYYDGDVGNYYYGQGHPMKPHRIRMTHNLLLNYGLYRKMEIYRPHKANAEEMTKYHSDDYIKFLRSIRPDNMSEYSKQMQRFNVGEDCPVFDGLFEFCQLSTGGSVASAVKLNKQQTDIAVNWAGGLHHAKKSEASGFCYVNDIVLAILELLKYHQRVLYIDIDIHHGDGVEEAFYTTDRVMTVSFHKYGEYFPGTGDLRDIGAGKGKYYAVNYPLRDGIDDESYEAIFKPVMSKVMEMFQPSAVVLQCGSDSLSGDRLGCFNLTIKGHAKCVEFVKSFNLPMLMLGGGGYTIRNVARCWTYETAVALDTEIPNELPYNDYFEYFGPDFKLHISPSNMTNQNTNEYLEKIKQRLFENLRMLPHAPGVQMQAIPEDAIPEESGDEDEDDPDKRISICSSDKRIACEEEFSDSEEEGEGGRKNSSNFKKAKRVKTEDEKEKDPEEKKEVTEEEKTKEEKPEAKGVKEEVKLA

MCF7 = test: Antiproliferative activity against human MCF7 cells assessed as inhibition of cell growth by MTT assay; assay type: functional, cell-based
Histone deacetylase 4 = Histone deacetylase 4 (Homo sapiens, UniProt P56524); test: Inhibition of HDAC4 (unknown origin)
Chain of Histone deacetylase 4 (P56524 whole entry): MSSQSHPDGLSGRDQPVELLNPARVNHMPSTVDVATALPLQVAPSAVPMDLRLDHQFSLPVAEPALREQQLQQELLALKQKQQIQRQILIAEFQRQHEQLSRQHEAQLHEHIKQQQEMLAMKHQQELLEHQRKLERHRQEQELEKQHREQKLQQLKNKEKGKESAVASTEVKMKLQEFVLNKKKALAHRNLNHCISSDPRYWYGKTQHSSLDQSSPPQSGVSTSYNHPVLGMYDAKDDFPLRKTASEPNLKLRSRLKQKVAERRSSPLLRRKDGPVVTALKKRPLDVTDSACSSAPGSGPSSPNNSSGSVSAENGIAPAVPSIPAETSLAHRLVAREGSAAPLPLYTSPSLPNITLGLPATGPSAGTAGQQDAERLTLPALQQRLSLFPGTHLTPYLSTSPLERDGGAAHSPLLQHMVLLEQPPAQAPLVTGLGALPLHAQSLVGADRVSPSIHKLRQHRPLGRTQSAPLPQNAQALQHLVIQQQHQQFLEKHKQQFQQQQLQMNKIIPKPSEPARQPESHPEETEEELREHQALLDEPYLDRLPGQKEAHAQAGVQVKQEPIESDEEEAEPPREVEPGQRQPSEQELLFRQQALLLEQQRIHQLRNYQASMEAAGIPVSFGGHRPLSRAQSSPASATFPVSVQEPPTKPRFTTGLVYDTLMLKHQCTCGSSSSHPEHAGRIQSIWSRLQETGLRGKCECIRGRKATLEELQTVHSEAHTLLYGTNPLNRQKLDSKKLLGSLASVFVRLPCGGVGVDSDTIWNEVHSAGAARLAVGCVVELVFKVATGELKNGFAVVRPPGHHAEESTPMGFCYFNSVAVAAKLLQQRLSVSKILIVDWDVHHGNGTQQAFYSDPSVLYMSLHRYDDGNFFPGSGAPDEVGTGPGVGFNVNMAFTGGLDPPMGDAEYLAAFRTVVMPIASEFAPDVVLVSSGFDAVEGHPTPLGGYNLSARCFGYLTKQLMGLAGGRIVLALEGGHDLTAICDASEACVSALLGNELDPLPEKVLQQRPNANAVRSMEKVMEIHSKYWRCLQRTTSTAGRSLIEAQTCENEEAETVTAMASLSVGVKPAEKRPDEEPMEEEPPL

K562 [5] = test: Potency index, ratio of SAHA IC50 to test compound IC50 for antiproliferative activity against human K562 cells assessed as inhibition of cell growth by MTT assay; assay type: functional
[6] = biological target: T1, DNA topoisomerase 1 (Homo sapiens) (UniProt P11387); test: Inhibition of topoisomerase 1 (unknown origin) mediated DNA relaxation assessed as delay in pBR322 DNA migration by gel electrophoresis assay
T1 sequence (whole entry): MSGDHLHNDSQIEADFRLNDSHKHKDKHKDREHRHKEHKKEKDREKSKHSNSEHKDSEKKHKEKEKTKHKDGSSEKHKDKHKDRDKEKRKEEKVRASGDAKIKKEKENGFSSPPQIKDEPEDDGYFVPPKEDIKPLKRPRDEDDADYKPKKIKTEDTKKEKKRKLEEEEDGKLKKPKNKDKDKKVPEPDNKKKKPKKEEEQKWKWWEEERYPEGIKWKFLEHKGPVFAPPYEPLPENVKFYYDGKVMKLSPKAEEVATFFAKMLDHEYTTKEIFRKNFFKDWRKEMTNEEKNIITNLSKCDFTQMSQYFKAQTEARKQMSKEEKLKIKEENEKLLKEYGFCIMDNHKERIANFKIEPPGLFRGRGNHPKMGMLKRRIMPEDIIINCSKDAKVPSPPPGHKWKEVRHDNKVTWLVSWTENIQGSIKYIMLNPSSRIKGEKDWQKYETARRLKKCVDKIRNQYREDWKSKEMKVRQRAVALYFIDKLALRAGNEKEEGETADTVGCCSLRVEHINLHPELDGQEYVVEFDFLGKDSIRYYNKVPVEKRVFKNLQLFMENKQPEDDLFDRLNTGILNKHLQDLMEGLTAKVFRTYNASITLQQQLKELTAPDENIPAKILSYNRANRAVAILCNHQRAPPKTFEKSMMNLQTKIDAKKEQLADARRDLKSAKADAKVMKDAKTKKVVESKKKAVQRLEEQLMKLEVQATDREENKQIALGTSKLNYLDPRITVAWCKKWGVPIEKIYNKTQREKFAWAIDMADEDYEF

HCT-116 [7] = test: Induction of ROS production in human HCT-116 cells by flow cytometric analysis; assay type: functional, cell-based; conditions: dose 0.5-1 µM
HCT-116 [8] = test: Induction of apoptosis in human HCT-116 cells assessed as necrotic cells at 1 uM incubated for 24 hrs by Annexin V-FITC/PI staining based flow cytometry analysis (reference value: 0.00%); assay type: functional
HCT-116 [9] = test: Induction of apoptosis in human HCT-116 cells assessed as decrease in Bcl-2 protein expression incubated for 24 hrs by Western blot analysis; assay type: functional, cell-based; conditions: dose 0.5-1 µM
HCT-116 [10] = test: Induction of apoptosis in human HCT-116 cells assessed as early apoptotic cells at 0.5 uM incubated for 24 hrs by Annexin V-FITC/PI staining based flow cytometry analysis (reference value: 6.50%); assay type: functional
HCT-116 [11] = test: Induction of cell cycle arrest in human HCT-116 assessed as decrease in G0/G1 phase cells at 1 uM incubated for 48 hrs by flow cytometric analysis (reference value: 63.51%); assay type: functional; parameters: scale not given: the % may be the effect or the level left
HCT-116 [12] = test: Induction of cell cycle arrest in human HCT-116 assessed as increase in G2/M phase cells at 1 uM incubated for 48 hrs by flow cytometric analysis (reference value: 23.70%); assay type: functional
HCT-116 [13] = test: Induction of cell cycle arrest in human HCT-116 assessed as increase in G2/M phase cells at 0.5 uM incubated for 48 hrs by flow cytometric analysis (reference value: 23.70%); assay type: functional
[14] = Cytotoxicity against HUVEC cells assessed as inhibition of cell growth by MTT assay; conditions: human
HCT-116 [15] = test: Induction of apoptosis in human HCT-116 cells assessed as total apoptotic cells at 0.5 uM incubated for 24 hrs by Annexin V-FITC/PI staining based flow cytometry analysis (reference value: 6.823%); assay type: functional
HCT-116 [16] = test: Antiproliferative activity against human HCT-116 cells assessed as inhibition of cell growth by MTT assay; assay type: functional, cell-based
HCT-116 [17] = test: Potency index, ratio of SAHA IC50 to test compound IC50 for antiproliferative activity against human HCT-116 cells assessed as inhibition of cell growth by MTT assay; assay type: functional
HCT-116 [18] = test: Induction of apoptosis in human HCT-116 cells assessed as total apoptotic cells at 1 uM incubated for 24 hrs by Annexin V-FITC/PI staining based flow cytometry analysis (reference value: 6.823%); assay type: functional
HCT-116 [19] = test: Induction of apoptosis in human HCT-116 cells assessed as necrotic cells at 0.5 uM incubated for 24 hrs by Annexin V-FITC/PI staining based flow cytometry analysis (reference value: 0.00%); assay type: functional
[20] = biological target: Histone deacetylase (Homo sapiens) (UniProt Q13547+O15379+Q9UBN7+Q92769+Q9UQL6+Q8WUI4+Q9BY41+Q96DB2+P56524+Q9UKV0+Q969S8); test: Inhibition of HDAC in human HCT-116 cells assessed as increase in alpha tubulin acetylation incubated for 24 hrs by Western blot analysis; assay type: cell-based; conditions: dose 0.5-1 µM
Histone deacetylase 3 = Histone deacetylase 3 (Homo sapiens, UniProt O15379); test: Inhibition of HDAC3 (unknown origin)
Chain of Histone deacetylase 3 (O15379 whole entry): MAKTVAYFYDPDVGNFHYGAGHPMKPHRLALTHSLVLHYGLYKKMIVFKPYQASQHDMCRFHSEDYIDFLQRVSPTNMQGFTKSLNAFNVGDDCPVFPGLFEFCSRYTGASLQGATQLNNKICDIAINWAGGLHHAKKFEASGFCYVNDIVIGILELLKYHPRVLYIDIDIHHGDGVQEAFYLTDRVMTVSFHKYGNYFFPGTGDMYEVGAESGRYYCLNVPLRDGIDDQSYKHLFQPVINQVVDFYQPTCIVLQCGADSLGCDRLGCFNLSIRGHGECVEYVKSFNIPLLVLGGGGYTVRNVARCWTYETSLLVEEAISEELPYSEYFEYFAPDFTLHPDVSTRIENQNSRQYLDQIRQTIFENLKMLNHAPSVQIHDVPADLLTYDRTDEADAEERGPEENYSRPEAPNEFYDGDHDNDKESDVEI

HL-60 [21] = test: Potency index, ratio of SAHA IC50 to test compound IC50 for antiproliferative activity against human HL-60 cells assessed as inhibition of cell growth by MTT assay; assay type: functional
HCT-116 [22] = test: Inhibition of cell migration in human HCT-116 cells measured upto 12 hrs by wound healing assay; assay type: functional, cell-based; conditions: dose 0.5-1 µM
HL-60 [23] = test: Antiproliferative activity against human HL-60 cells assessed as inhibition of cell growth by MTT assay; assay type: functional, cell-based
K562 [24] = test: Antiproliferative activity against human K562 cells assessed as inhibition of cell growth by MTT assay; assay type: functional, cell-based
[25] = biological target: T1, DNA topoisomerase 1 (Homo sapiens); test: Inhibition of topoisomerase 1 (unknown origin) assessed as effect on DNA by gel electrophoresis

O=C(CCCCCCNc1nc2ccccc2nc1-c1nc2ccccc2o1)NO
Activity (HCT-116 [1]): Dose-Dependent Effect | IC50 (PANC-1): 1030 nM | Activity (HCT-116 [2]): 34.5% | IC50 (RS4-11): 890 nM | Activity (HCT-116 [3]): Active | Activity (HCT-116 [4]): 17.3% | IC50 (Histone deacetylase 1): 11 nM | IC50 (MCF7): 1270 nM | IC50 (Histone deacetylase 4): 15.5 nM | Ratio IC50 (K562 [5]): 2 | inhibition [6]: Active | Activity (HCT-116 [7]): Dose-Dependent Effect | Activity (HCT-116 [8]): 0.103% | Activity (HCT-116 [9]): Dose-Dependent Effect | Activity (HCT-116 [10]): 28.1% | Activity (HCT-116 [11]): 46.57% | Activity (HCT-116 [12]): 39.64% | Activity (HCT-116 [13]): 36.67% | IC50 [14]: 19100 nM | Activity (HCT-116 [15]): 35.31% | IC50 (HCT-116 [16]): 910 nM | Ratio IC50 (HCT-116 [17]): 6 | Activity (HCT-116 [18]): 51.8% | Activity (HCT-116 [19]): 0.241% | inhibition [20]: Dose-Dependent Effect | IC50 (Histone deacetylase 3): 15.5 nM | Ratio IC50 (HL-60 [21]): 2 | inhibition (HCT-116 [22]): Dose-Dependent Effect | IC50 (HL-60 [23]): 890 nM | IC50 (K562 [24]): 890 nM | inhibition [25]: inactive
